The values that follow come from ChEMBL document CHEMBL4673260, “Pyridine alkaloids with activity in the central nervous system” (Bioorg Med Chem, 2020).

In data set [1] the target is T1, Neuronal acetylcholine receptor subunit alpha-7 (Rattus norvegicus, UniProt Q05941). Put plainly: Agonist activity at rat brain alpha7 nAChR.
Data set [2] in a line: Toxicity in iv dosed Swiss-Webster mouse by up-and-down method. Format: organism-based. As to conditions: in vivo.
The target of data set [3] is T1, Neuronal acetylcholine receptor subunit alpha-7. Put plainly: Displacement of 125I-alpha-bungarotoxin from rat brain alpha7 nAChR by radioligand binding assay. (In general: Displacement assays read how much labelled ligand stays bound in the presence of the test substance.)
Data set [4] deals with T2, Muscarinic acetylcholine receptor M1 (Rattus norvegicus) (UniProt P08482).
T2 sequence (whole entry): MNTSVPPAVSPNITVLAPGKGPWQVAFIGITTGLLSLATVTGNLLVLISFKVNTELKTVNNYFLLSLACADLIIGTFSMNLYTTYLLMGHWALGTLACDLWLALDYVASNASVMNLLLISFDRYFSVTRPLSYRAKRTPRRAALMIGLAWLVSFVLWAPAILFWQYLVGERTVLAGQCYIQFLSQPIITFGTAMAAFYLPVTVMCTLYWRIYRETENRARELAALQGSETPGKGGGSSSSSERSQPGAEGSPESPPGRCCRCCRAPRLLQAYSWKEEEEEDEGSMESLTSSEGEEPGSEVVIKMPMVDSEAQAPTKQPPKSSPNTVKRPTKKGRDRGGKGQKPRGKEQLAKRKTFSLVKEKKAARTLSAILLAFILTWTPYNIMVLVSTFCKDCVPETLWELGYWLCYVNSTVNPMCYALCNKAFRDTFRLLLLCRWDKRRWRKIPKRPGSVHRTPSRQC
Put plainly: Displacement of [3H]-Pirenzepine from rat cerebral cortex Muscarinic M1 receptor at 10 uM by radioligand binding assay relative to control. As to conditions: filed as antagonist.

Data set [5] deals with T2, Muscarinic acetylcholine receptor M1 (Rattus norvegicus). The note with it: filed as antagonist, time 40.0 min.
For data set [6], the target named is Neuronal acetylcholine receptor; alpha4/beta2 (Homo sapiens, UniProt P17787+P43681). Put plainly: Agonist activity at human alpha4beta2 nAChR expressed in human K177 cell membrane assessed as increase in 86-rubidium efflux incubated for 5 mins by gamma counting method. It counts as cell membranes. The note with it: K177cell line, filed as agonist.
For data set [7], the target named is Neuronal acetylcholine receptor; alpha3/beta4 (Homo sapiens) (UniProt P30926+P32297). Put plainly: Agonist activity at human alpha3beta4 nAChR expressed in mouse/rat hybrid F11 cells assessed as increase in rubidium-86 efflux. Format: cell-based. The note with it: filed as agonist.
Data set [8] has as its target T2, Muscarinic acetylcholine receptor M1 (Rattus norvegicus). The note with it: filed as antagonist, time 60.0 min.
In data set [9] the target is Neuronal acetylcholine receptor subunit alpha-7 (Homo sapiens, UniProt P36544). The note with it: filed as agonist.
Description: Agonist activity at human alpha7 nAChR (unknown origin)
Data set [10] has as its system Torpedo. Put plainly: Agonist activity at Torpedo alpha1beta1deltagamma nACHR. As to conditions: filed as agonist.
Data set [11] is filed under the species Rattus norvegicus. Put plainly: Displacement of [3H]-Cytisine from rat cerebral cortex nAChR at 10 uM by radioligand binding assay relative to control. As to conditions: filed as antagonist.
Data set [12] in a line: In vivo inhibition of DBH in rat assessed as norepinephrine expression in rat brain at 100 mg/kg, ip administered as single dose measured after 3 hrs by spectrophotofluorometric analysis (reference value: 0.22 ug/g). It counts as functional, organism-based.
For data set [13], the target named is T3, Dopamine beta-hydroxylase (Bos taurus) (UniProt P15101).
T3 sequence (whole entry): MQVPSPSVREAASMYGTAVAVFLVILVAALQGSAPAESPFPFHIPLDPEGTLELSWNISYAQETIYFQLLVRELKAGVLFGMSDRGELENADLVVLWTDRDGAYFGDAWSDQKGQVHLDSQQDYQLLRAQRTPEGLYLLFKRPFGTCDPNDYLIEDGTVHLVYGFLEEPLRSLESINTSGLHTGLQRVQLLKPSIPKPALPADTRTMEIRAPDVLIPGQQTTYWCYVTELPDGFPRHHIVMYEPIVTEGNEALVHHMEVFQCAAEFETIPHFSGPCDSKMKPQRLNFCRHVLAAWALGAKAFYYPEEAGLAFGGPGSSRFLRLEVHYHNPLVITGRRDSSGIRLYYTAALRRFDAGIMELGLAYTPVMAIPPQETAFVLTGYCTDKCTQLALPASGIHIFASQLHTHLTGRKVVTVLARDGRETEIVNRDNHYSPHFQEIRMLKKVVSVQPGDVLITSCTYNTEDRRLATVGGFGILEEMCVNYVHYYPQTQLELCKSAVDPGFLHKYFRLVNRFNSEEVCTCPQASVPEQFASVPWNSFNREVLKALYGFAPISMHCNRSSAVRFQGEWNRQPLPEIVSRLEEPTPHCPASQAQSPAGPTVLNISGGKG
Put plainly: Inhibition of bovine adrenal medulla DBH at 1 uM relative to control.

For data set [14], the target named is T3, Dopamine beta-hydroxylase (Bos taurus). Put plainly: Inhibition of bovine adrenal medulla DBH at 0.005 uM relative to control.
A short description of data set [15]: In vivo inhibition of DBH in rat assessed as norepinephrine expression in rat brain at 100 mg/kg, ip administered as single dose measured after 3 hrs by spectrophotofluorometric analysis (reference value: 0.42 ug/g). Format: functional, organism-based.
Data set [16] deals with Dopamine beta-hydroxylase (Bos taurus, UniProt P15101). Put plainly: Inhibition of bovine adrenal medulla DBH incubated for 25 mins.
A short description of data set [17]: In vivo inhibition of DBH in human assessed as reduction in 3-methoxy-4-hydroxy-phenylglycol level in cerebrospinal fluid at 1.12g administered for 10 to 20 days. Format: functional. As to conditions: time 10-20 day.
Data set [18] has as its target T3, Dopamine beta-hydroxylase (Bos taurus). Put plainly: Inhibition of bovine adrenal medulla DBH at 0.5 uM relative to control.
For data set [19] the target is unchanged. Put plainly: Inhibition of bovine adrenal medulla DBH at 0.05 uM relative to control.
Data set [20] concerns the target T1, Neuronal acetylcholine receptor subunit alpha-7.
Description: Displacement of [3H]MLA from rat alpha7 nAChR by liquid scintillation counting
For data set [21], the target named is Neuronal acetylcholine receptor; alpha4/beta2 (Rattus norvegicus, UniProt P09483+P12390).
For data set [22], the species on record is Mus musculus. Put plainly: Antipsychotic activity in mouse assessed as reduction in amphetamine-induced toxicity. The arrangement: scale not given: the % may be the effect or the level left. Format: functional.
The species named for data set [23] is Rattus norvegicus. Put plainly: Potentiation of morphine-induced analgesia in rat relative to control. It counts as functional.
Data set [24] relates to Rattus norvegicus. Put plainly: Protection against pentylenetetrazol-induced convulsion in rat at 50 to 100 mg/kg, ip relative to control. As to conditions: dose 50-100 mg/kg. Format: functional.
The species named for data set [25] is Mus musculus. Put plainly: Antipsychotic activity in trained mouse assessed as reduction in ability of mouse to remain on rotating rod. It counts as functional.
The species entered for data set [26] is Mus musculus. Put plainly: Antipsychotic activity in albino mouse assessed as potentiation of hexobarbital-induced sleeping time. Format: functional.
The species named for data set [27] is Mus musculus. Put plainly: Antiaggressive activity in mouse assessed as reduction in foot shock induced fighting behavior. Format: functional. The arrangement: scale not given: the % may be the effect or the level left.
The nature of data set [28]: Toxicity in ip dosed albino rat. It counts as organism-based. The note with it: in vivo.
The species entered for data set [29] is Rattus norvegicus. Put plainly: Potentiation of diphenylhydantoin-induced anticonvulsant activity in rat relative to control. It counts as functional.
The species entered for data set [30] is Cavia porcellus. Put plainly: Inhibition of voltage-dependent calcium channel mediated calcium influx in guinea-pig ileum assessed as Cacl2 induced maximal smooth muscle contraction at 490 uM incubated for 15 mins relative to control. It counts as tissue-based.
The species named for data set [31] is Cavia porcellus. Put plainly: Inhibition of voltage-dependent calcium channel mediated calcium influx in guinea-pig ileum assessed as Cacl2 induced maximal smooth muscle contraction at 120 uM incubated for 15 mins relative to control. It counts as tissue-based.
The target in data set [32] is Cholinesterase (Equus caballus, UniProt P81908). Put plainly: Inhibition of horse serum BuChE by Ellman's colorimetric method. Background: In Ellman's method for cholinesterases, released thiocholine reacts with DTNB.
A short description of data set [33]: Selectivity ratio of Ki for horse serum BuChE to Ki for human erythrocyte acetylcholinesterase.
The target in data set [34] is Acetylcholinesterase (Homo sapiens, UniProt P22303). Put plainly: Inhibition of human erythrocyte acetylcholinesterase using acetylthiocholine as substrate by Ellman's colorimetric method.
The test system of data set [35] is PC-12. Put plainly: Induction of neurite outgrowth in rat PC-12 cells at 33 uM incubated for 24 hrs by phase contrast microscopic analysis relative to control. It counts as functional.
The test system of data set [36] is PC-12. Put plainly: Induction of neurite outgrowth in rat PC-12 cells at 10 uM incubated for 24 hrs by phase contrast microscopic analysis relative to control. Format: functional.
The test system of data set [37] is PC-12. Put plainly: Induction of neurite outgrowth in rat PC-12 cells at 3.3 uM incubated for 24 hrs by phase contrast microscopic analysis relative to control. It counts as functional.

T1 sequence (Q05941 whole entry): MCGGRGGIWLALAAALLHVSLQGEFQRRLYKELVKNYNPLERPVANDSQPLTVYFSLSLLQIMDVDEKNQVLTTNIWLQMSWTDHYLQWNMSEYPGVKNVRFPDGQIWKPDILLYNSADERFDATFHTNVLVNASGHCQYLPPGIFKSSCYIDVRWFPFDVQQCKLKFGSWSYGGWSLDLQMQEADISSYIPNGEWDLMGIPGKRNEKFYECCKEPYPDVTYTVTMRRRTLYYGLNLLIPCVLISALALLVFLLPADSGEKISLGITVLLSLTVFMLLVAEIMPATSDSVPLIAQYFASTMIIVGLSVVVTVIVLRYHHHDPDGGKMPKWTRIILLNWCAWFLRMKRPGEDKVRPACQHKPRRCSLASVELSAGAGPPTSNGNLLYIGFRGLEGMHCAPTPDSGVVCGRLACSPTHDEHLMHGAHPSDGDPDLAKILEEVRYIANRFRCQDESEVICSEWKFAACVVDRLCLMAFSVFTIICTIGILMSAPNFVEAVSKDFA
Sequence of Cholinesterase (P81908 whole entry): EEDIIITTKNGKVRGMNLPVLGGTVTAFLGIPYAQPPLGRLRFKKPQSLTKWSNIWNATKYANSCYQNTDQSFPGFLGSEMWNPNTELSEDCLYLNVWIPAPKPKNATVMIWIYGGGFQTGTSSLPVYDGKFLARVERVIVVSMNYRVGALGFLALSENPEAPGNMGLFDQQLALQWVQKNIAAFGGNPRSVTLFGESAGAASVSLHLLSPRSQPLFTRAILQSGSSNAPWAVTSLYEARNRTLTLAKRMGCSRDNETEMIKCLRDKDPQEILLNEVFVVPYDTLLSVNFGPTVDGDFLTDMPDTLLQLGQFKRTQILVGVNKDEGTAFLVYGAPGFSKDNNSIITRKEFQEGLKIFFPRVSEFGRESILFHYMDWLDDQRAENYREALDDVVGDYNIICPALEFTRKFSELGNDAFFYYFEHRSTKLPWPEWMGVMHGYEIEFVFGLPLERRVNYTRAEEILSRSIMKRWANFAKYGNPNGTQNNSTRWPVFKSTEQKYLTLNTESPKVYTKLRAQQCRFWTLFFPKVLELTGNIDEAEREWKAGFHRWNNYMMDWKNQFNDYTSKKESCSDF
Sequence of Neuronal acetylcholine receptor; alpha4/beta2 (Rattus norvegicus, UniProt P09483+P12390) (P09483 whole entry): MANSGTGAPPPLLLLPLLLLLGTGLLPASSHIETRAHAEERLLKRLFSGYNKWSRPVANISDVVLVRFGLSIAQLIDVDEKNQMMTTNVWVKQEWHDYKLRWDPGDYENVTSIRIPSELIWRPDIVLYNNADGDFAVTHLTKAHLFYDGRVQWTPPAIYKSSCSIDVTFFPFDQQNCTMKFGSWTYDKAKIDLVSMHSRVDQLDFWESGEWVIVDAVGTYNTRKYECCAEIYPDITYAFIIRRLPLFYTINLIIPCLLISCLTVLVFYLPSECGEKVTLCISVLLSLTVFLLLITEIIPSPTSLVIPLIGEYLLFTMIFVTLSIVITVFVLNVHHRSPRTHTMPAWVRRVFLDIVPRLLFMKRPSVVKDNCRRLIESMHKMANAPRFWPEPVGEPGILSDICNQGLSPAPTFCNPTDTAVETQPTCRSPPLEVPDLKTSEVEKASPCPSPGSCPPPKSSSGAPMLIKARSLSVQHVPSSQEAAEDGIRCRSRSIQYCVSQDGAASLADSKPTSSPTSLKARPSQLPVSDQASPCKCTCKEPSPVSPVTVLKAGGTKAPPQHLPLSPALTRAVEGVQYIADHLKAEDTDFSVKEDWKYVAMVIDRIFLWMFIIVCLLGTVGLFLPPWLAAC
Sequence of Neuronal acetylcholine receptor; alpha4/beta2 (Rattus norvegicus, UniProt P09483+P12390) (P12390 whole entry): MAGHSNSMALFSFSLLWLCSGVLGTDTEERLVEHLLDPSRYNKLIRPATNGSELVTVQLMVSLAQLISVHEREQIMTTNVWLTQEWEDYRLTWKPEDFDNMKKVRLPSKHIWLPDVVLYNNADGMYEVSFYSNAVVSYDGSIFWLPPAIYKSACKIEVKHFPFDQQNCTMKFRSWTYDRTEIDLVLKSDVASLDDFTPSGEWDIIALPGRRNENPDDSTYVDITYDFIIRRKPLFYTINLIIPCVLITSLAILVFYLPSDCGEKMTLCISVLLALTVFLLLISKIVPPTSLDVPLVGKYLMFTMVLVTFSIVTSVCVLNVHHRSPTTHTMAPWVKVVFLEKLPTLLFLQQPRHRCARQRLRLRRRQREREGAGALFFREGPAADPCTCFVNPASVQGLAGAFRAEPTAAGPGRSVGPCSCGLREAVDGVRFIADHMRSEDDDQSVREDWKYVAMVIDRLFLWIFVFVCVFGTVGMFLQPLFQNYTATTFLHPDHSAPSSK
Sequence of Acetylcholinesterase (P22303 whole entry): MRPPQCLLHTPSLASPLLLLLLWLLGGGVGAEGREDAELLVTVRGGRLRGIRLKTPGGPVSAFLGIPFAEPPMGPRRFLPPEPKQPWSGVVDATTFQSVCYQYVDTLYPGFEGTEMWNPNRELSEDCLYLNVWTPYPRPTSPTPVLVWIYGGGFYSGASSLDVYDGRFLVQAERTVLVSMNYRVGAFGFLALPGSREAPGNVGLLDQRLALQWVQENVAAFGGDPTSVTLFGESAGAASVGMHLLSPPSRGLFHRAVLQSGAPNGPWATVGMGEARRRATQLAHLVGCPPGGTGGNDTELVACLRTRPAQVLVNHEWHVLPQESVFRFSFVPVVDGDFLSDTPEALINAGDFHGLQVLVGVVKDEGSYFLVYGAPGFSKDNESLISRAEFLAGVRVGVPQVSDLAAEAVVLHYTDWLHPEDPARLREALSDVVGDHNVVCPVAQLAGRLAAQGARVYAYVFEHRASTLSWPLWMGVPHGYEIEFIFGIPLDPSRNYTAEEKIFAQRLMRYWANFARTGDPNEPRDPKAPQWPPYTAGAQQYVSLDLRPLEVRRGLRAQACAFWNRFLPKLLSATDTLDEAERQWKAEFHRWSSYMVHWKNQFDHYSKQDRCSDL
Sequence of Neuronal acetylcholine receptor subunit alpha-7 (Homo sapiens, UniProt P36544) (P36544 whole entry): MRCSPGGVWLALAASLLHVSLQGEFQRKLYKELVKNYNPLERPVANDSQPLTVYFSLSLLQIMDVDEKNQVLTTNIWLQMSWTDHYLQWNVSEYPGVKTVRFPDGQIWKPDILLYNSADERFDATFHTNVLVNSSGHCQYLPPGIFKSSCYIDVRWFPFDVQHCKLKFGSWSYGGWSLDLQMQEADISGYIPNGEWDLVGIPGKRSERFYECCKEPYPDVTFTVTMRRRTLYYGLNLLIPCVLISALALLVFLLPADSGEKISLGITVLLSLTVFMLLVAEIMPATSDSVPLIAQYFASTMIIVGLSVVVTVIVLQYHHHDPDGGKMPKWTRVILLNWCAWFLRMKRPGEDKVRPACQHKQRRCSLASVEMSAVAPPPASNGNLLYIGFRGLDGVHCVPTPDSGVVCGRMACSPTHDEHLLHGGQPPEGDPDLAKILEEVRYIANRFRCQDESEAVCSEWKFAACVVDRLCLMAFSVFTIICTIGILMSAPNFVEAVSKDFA

On to `c1cncc([C@@H]2CCCCN2)c1` [ANABASINE], for which the EC50 (in general, the midpoint of the concentration-response curve) in data set [1] stood at 18000 nM. Further, the LD50 (as a rule, the dose at which mortality reaches 50%) in data set [2] was 16 mg/kg. Besides, in data set [3], affinity was put at a Ki of 390 nM.

As to `Clc1ccc(C2CC3CCC2N3)cn1` (stereo in doubt; (+)), the inhibition (commonly how much of the control response was suppressed) in [4] amounted to 70%; in data set [11], 98%. Further, the Kapp was 1.6 µM in data set [5] and 6.9 µM in [8]. In addition, the ED50 in [6] is 17 nM; in data set [7] it was 19 nM; in data set [9], 1100 nM; in [10], 1600 nM.

`CCCCc1ccc(C(=O)O)nc1` [FUSARIC ACID]: the IC50 in data set [12] is 0.1 µg/g; in [15], 0.4 µg/g; in data set [16], 50 nM. For the same compound, the inhibition was found to be 92% in data set [13], 20% in data set [14], 89% in data set [18] and 58% in [19]. Also, in data set [17], the “inhibition (INH)” value is recorded as 25%.

In the case of `O=c1c(O)ccc2n1CC1CNC2C1` (configuration not stated), the inhibitory constant (Ki) – broadly, the dissociation constant of the complex between target and ligand, obtained from inhibition or displacement – was found to be 260000 nM in data set [20] and 14000 nM in data set [21].

In the case of `C=Cc1cncc2c1CCOC2=O`, the Activity in data set [22] is on record as 88%; in data set [23], 150%; in data set [24], 70%; in data set [25], 80%; in data set [26], 80%; in [27], 60%. For the same compound, in data set [29], the Activity was determined as 60%. For the same compound, the 50% lethal dose (LD50) in data set [28] was 276 mg/kg.

For the compound `COC(=O)c1cncc2c1C[C@H](O)[C@@H]2C`, the inhibition came to 45% in [30] and 90% in data set [31].

As to `CN1CCCC[C@H]1c1ccc(-c2cccnc2)nc1`, the Ki in data set [32] was 440000 nM; in data set [34] it was 51000 nM. In [33], the Ratio Ki stood at 8.6.

For `CC[C@@H](C)C[C@@H](C)/C=C(C)/C=C/C=C/C(=O)c1c(O)c(C2(O)CCC(O)CC2)cn(O)c1=O` (some centres not stated), the Activity came out at 80% in data set [35], 70% in data set [36] and 30% in [37].
